From patent US20240101576A1, “HETEROCYCLIC INHIBITORS OF EGFR AND/OR HER2, FOR USE IN THE TREATMENT OF CANCER” (Scorpion Therapeutics, Inc., priority 2020, published 2024)

What was measured:
Format in all cases: cell-based
[1] = biological target: T1, EGFR exon 20 SVD Ins D770_N771 (Ba/F3 cells) (Homo sapiens, UniProt P00533, INS770SVD); assay: Inhibitor activity on EGFR-dependent cell growth (CellTiter-Glo, 72 h), Ba/F3 EGFR exon 20 SVD Ins; conditions: read-out: BaF3 SVD IC50
T1 construct: expressed in transfected cells; host or cells: Ba/F3 (murine pro-B cells), retroviral transduction, puromycin selection, IL3-independent pool
T1 sequence (P00533 with tags, fused parts or gaps INS770SVD): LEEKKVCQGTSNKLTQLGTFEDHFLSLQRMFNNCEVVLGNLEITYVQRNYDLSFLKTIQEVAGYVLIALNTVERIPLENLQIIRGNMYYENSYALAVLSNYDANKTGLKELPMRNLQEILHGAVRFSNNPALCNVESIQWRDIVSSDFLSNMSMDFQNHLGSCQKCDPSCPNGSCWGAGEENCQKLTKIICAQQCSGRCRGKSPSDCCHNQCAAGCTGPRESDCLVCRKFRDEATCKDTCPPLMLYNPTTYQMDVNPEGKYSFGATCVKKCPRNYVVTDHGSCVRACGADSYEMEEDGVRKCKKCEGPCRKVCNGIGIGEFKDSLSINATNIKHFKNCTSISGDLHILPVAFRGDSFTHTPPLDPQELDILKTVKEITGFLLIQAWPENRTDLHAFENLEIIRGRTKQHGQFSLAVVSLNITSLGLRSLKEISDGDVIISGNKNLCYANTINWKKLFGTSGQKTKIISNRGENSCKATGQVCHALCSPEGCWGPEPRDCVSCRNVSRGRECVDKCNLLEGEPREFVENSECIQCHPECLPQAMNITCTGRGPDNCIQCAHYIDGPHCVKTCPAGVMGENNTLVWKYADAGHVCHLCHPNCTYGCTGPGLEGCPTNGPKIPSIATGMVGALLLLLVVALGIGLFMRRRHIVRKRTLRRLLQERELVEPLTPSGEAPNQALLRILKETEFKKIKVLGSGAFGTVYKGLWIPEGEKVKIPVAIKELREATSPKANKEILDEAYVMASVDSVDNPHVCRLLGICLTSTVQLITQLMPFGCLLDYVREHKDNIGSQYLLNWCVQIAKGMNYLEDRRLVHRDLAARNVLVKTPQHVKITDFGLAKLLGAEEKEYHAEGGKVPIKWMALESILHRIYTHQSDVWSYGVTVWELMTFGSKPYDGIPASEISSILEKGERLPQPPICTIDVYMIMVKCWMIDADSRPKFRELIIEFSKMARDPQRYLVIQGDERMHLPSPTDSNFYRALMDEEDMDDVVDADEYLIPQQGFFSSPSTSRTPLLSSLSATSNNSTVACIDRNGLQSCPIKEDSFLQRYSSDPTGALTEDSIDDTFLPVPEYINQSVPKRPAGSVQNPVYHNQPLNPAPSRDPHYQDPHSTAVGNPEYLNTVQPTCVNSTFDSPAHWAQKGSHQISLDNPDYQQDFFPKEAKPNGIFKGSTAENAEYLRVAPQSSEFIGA
Outline: (§1)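 IC50s derive from a sigmoidal dose–response fit of CellTiter-Glo signal. The signal was normalised between […]-treated cells and cell-free medium. Ba/F3 mutant-EGFR cells, seeded at 400–800/well depending on the line, had 72 h of exposure to a 10-point, 3-fold compound series.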

[2] = biological target: T2, EGFR exon 20 FQEA Ins A763_V764 (Ba/F3 cells) (Homo sapiens, UniProt P00533, INS763FQEA); assay: Inhibitor activity on EGFR-dependent cell growth (CellTiter-Glo, 72 h), Ba/F3 EGFR exon 20 FQEA Ins; conditions: read-out: BaF3 FQEA IC50
T2 construct: expressed in transfected cells; host or cells: Ba/F3 (murine pro-B cells), retroviral transduction, puromycin selection, IL3-independent pool
T2 sequence (P00533 with tags, fused parts or gaps INS763FQEA): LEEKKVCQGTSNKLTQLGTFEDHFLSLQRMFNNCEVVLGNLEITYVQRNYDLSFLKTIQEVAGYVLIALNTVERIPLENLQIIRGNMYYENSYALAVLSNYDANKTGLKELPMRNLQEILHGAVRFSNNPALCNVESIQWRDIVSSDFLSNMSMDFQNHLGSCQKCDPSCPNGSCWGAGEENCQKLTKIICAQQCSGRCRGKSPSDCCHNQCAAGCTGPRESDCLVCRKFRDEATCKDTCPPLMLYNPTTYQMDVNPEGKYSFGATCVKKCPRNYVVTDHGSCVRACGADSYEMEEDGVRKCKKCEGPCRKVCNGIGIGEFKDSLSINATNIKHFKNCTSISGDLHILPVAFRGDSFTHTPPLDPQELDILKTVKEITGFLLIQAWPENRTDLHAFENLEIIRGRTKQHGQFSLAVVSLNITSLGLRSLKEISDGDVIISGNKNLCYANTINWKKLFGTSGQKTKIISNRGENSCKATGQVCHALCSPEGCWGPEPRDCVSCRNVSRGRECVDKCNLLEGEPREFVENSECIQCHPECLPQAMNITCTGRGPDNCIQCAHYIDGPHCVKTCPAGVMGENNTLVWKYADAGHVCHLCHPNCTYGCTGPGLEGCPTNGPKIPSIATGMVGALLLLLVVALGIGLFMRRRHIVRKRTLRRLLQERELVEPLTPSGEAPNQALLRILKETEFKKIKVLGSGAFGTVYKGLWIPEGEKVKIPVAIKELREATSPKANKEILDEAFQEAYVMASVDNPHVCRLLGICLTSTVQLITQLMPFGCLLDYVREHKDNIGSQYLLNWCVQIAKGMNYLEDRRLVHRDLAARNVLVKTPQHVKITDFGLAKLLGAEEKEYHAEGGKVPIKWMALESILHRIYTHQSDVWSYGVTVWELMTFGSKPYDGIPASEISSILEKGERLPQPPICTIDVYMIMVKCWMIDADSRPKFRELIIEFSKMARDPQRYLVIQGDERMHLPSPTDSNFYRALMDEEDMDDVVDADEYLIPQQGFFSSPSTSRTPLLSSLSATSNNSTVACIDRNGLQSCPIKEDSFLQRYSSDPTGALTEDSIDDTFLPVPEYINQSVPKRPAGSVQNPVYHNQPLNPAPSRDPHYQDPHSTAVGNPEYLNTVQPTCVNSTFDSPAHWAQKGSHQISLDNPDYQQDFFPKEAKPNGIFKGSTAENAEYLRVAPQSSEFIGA
Outline: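 Ba/F3, retrovirally transduced, puromycin-selected, grown without IL3; cells/well: L858R 400, L858R/C797S 600, exon 19del 800, FQEA 800. Cpds from 10 mM DMSO stock, 3-fold ×10 dilution, 120 nL per well; 72 h. CTG readout; IC50 via Hill equation.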

[3] = biological target: T3, EGFR exon 20 ASV Ins V769_D770 (Ba/F3 cells) (Homo sapiens, UniProt P00533, INS769ASV); assay: Inhibitor activity on EGFR-dependent cell growth (CellTiter-Glo, 72 h), Ba/F3 EGFR exon 20 ASV Ins; conditions: read-out: BaF3 ASV IC50
T3 construct: expressed in transfected cells; host or cells: Ba/F3 (murine pro-B cells), retroviral transduction, puromycin selection, IL3-independent pool
T3 sequence (P00533 with tags, fused parts or gaps INS769ASV): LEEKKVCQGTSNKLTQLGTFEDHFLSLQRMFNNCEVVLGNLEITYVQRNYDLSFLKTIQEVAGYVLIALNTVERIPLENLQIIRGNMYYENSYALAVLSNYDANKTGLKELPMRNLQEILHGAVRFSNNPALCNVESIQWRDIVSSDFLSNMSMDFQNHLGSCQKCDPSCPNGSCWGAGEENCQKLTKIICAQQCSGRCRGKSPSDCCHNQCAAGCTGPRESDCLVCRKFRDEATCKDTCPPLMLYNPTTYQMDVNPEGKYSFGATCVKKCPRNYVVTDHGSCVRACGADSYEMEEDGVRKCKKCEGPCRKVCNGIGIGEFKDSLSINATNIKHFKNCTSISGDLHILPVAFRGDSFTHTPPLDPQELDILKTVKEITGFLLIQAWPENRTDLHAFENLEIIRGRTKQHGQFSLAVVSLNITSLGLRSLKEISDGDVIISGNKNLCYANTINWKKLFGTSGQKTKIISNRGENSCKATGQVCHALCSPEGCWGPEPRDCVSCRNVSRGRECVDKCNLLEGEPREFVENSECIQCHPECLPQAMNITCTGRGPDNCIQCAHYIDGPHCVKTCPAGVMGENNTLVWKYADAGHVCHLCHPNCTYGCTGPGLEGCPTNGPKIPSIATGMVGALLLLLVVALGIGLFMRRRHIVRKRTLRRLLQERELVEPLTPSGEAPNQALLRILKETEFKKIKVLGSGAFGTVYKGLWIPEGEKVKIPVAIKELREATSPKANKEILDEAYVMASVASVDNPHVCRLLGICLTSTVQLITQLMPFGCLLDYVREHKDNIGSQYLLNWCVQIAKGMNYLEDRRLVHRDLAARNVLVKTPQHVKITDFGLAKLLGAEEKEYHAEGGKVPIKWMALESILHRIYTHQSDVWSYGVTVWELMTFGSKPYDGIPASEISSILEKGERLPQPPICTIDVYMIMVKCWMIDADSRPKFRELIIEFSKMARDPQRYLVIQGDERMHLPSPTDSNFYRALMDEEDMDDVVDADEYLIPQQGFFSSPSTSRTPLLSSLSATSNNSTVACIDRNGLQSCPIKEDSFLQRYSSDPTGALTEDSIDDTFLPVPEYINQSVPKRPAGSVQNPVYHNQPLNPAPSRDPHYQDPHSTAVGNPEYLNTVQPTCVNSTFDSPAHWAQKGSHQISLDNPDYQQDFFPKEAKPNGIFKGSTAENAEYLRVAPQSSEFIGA
Outline: as §1

EGFR WT (Ba/F3 cells) = biological target: T4, EGFR WT (Ba/F3 cells) (Homo sapiens, UniProt P00533); assay: Inhibitor activity on EGFR-dependent cell growth (CellTiter-Glo, 72 h), Ba/F3 EGFR WT; conditions: read-out: BaF3 WT IC50
T4 construct: expressed in transfected cells; host or cells: Ba/F3 (murine pro-B cells), retroviral transduction, puromycin selection, maintained with EGF
T4 sequence (P00533 25-1210): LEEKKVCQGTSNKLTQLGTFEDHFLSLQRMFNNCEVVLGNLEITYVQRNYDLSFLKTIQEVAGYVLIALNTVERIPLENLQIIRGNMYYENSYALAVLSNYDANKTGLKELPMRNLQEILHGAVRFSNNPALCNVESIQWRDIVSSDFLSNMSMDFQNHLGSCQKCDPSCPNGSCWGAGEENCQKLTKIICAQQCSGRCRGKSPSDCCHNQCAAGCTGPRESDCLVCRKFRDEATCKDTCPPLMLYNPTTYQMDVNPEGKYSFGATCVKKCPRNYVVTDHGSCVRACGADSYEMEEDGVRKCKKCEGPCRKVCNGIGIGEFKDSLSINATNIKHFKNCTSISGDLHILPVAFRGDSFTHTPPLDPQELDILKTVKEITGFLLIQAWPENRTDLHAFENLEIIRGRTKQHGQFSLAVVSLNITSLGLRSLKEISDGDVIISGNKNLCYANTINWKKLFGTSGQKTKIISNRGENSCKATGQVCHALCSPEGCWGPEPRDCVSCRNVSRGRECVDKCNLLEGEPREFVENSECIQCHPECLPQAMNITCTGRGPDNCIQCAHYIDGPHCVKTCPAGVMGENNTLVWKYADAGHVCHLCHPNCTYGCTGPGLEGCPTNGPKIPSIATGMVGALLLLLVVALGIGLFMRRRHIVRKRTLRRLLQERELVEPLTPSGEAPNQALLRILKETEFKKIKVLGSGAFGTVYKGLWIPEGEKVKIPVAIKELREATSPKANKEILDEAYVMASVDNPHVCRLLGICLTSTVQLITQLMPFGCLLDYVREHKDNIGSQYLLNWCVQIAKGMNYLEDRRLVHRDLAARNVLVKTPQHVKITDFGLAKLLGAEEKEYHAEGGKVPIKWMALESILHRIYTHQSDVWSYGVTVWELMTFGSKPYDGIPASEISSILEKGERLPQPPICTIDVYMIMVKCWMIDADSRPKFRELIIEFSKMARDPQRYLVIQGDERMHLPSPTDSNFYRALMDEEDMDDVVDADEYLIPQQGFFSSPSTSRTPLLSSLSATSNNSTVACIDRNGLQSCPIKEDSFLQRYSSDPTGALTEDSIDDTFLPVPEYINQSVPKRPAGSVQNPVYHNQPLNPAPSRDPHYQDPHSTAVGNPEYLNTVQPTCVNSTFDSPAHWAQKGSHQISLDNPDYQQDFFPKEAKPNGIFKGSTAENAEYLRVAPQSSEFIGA
Outline: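 This growth assay used Ba/F3 cells that depend on wild-type EGFR and are kept in EGF without IL3. Compounds were made up as 10 mM DMSO stocks and diluted 3-fold over 10 points. 120 nL went onto 600 cells/well. After 72 hours, 40 μL CellTiter-Glo was added and luminescence read on EnVision after 30 min.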

[4] = biological target: T3, EGFR exon 20 ASV Ins V769_D770 (Ba/F3 cells); assay: Inhibitor activity on EGFR phosphorylation (pEGFR AlphaLISA, 2 h), Ba/F3 EGFR exon 20 ASV Ins; conditions: EGFR phosphorylation, AlphaLISA, 2 hours; read-out: ASV IC50 (pEGFR)
From the text: Example B. Inhibitor Activity on EGFR phosphorylation (pEGFR)
EGFR mutant Ba/F3 cells were generated by transduction with retrovirus containing vectors expressing EGFR L858R, EGFR exon 19del, EGFR L858R/C797S, EGFR exon 20 NPG Ins D770_N771, EGFR exon 20 ASV Ins V769_D770, or EGFR exon 20 SVD Ins D770_N771 genes along with a puromycin selection marker. Transduced cells are selected with puromycin for 7 days and are then be transferred into culture media without Interleukin 3 (IL3). Surviving cells are confirmed to express EGFR by Western blot and maintained as a pool. CUTO14 cells were obtained from Dr. Robert C. Doebele at the University of Colorado. The IC50 date are included in Table 6 and Table 7.
1.1 Cells are harvested from flask into cell culture medium and the cell number counted.
1.2 Cells are diluted with culture medium to the desired density and 40 μL of cell suspension is added into each well of 384-well cell culture plate and the seeding density is 50K cells/well (Ba/F3) or 12.5K cells/well (CUTO14).
2 Compound Preparation and Treatment
2.1 Test compounds are dissolved to 10 mM in a DMSO stock solution. 45 μL of stock solution is transferred to a 384 polypropylene plate (pp-plate). Perform 3-fold, 10-point dilution via transferring 15 μL compound into 30 μL DMSO using a TECAN (EVO200) liquid handler.
2.2 Spin plates at room temperature at 1,000 RPM for 1 minute.
2.3 Transfer 5 nL of diluted compound from compound source plate into the cell plate.
2.4 After compound treatment for 2 hours, perform pEGFR detection by AlphaLISA for compound treatment plates as described in “Detection” section.
3 Detection by pEGFR AlphaLISA (Perkin-Elmer)
3.1 Plates are removed from incubators and equilibrated at room temperature for 10 minutes, and media was removed
3.2 10 μL of lysis buffer is added and plates shaken at 600 rpm for 1 hr.
3.3 Prepare acceptor mix just before use and dispense 5 μL of acceptor mix to all the wells. Shake 350 rpm for Ihr in the dark
3.4 Prepare donor mix under low light conditions prior to use. Dispense 5 μL of donor mix to all the wells. Mix well on the shaker, seal and wrap in aluminum foil and incubate 1.5 hrs at room temperature in the dark
3.5 Transfer 18.5 μL mixture to OptiPlate 384, and read using an Envision. The IC50 date were included in Table 6 and Table 7.

Structure (SMILES) | IC50 [1] | IC50 [2] | IC50 [3] | IC50 (EGFR WT (Ba/F3 cells)) | IC50 [4]
COc1c(F)cccc1Nc1c(-c2ccnc(C)c2)[nH]c2c1C(=O)NCC2 [compound 261] | > 1000 nM | > 1000 nM | > 1000 nM | > 1000 nM | 100 to 1000 nM
COc1c(Nc2c(-c3ccnc(N)n3)[nH]c3c2C(=O)NCC3)cccc1C(C)=O [compound 728, 3-[(3-acetyl-2-methoxyphenyl)amino]-2-(2-aminopyrimidin-4-yl)-1H,5H,6H,7H-pyrrolo[3,2-c]pyridin-4-one] | > 1000 nM | > 1000 nM | > 1000 nM | > 1000 nM | > 1000 nM
COc1c(F)cccc1Nc1c(-c2ccnc(N)c2)[nH]c2c1C(=O)NCC2 [compound 242] | > 1000 nM | > 1000 nM | > 1000 nM | > 1000 nM | 100 to 1000 nM
N#Cc1c(F)cccc1Nc1c(-c2ccnc(N)n2)[nH]c2c1C(=O)NCC2 [compound 200] | > 1000 nM | > 1000 nM | > 1000 nM | > 1000 nM | 100 to 1000 nM
Nc1nccc(-c2[nH]c3c(c2Nc2cccc4scnc24)C(=O)NCC3)n1 [compound 718, 2-(2-aminopyrimidin-4-yl)-3-(1,3-benzothiazol-4-ylamino)-1H,5H,6H,7H-pyrrolo[3,2-c]pyridin-4-one; trifluoroacetic acid] | > 1000 nM | > 1000 nM | > 1000 nM | > 1000 nM | 100 to 1000 nM
Nc1nccc(-c2[nH]c3c(c2Nc2ccc(Cl)cc2)C(=O)NCC3)n1 [compound 192] | – | > 1000 nM | – | > 1000 nM | > 1000 nM
CCOc1c(F)cccc1Nc1c(-c2ccnc(N)n2)[nH]c2c1C(=O)NCC2 [Compound 699, 2-(2-aminopyrimidin-4-yl)-3-[(2-ethoxy-3-fluorophenyl)amino]-1H,5H,6H,7H-pyrrolo[3,2-c]pyridin-4-one; trifluoroacetic acid] | > 1000 nM | > 1000 nM | > 1000 nM | > 1000 nM | 100 to 1000 nM
COc1c(Cl)cccc1Nc1c(-c2ccnc(NCC3CC(F)(F)C3)c2)[nH]c2c1C(=O)NCC2 [compound 711] | > 1000 nM | > 1000 nM | > 1000 nM | > 1000 nM | 100 to 1000 nM
COc1c(Cl)cccc1Nc1c(-c2ccnc(NCc3ccccc3)n2)[nH]c2c1C(=O)NCC2 [compound 209] | 100 to 1000 nM | > 1000 nM | 100 to 1000 nM | > 1000 nM | 100 to 1000 nM
Cc1c(F)cccc1Nc1c(-c2nc(N)ncc2F)[nH]c2c1C(=O)NCC2 [Compound 689, 2-(2-amino-5-fluoropyrimidin-4-yl)-3-[(3-fluoro-2-methylphenyl)amino]-1H,5H,6H,7H-pyrrolo[3,2-c]pyridin-4-one] | > 1000 nM | 100 to 1000 nM | > 1000 nM | – | 100 to 1000 nM
Cc1c(C#N)cccc1Nc1c(-c2ccnc(N)n2)[nH]c2c1C(=O)NCC2 [compound 201] | > 1000 nM | > 1000 nM | > 1000 nM | > 1000 nM | > 1000 nM
